Measured values reported in ChEMBL document CHEMBL1139563, “Synthesis of all-trans arachidonic acid and its effect on rabbit platelet aggregation” (Bioorg Med Chem Lett, 2005).

Tests used:
Type in all cases: functional
Oryctolagus cuniculus [1] = species: Oryctolagus cuniculus; assay: Inhibitory concentration against PAF (8E-10M) induced aggregation of rabbit platelet at 2.1E-4 M concentration
Oryctolagus cuniculus [2] = species: Oryctolagus cuniculus; assay: Inhibitory activity against PAF (4e-10 M) induced aggregation of rabbit platelet at 3E-5 M concentration
Oryctolagus cuniculus [3] = species: Oryctolagus cuniculus; assay: Inhibitory activity against PAF (8E-10M) induced aggregation of rabbit platelet at 2.1E-4 M concentration
Oryctolagus cuniculus [4] = species: Oryctolagus cuniculus; assay: Inhibitory activity against PAF (4e-10 M) induced aggregation of rabbit platelet at 2.1E-4 M concentration
Oryctolagus cuniculus [5] = species: Oryctolagus cuniculus; assay: Inhibitory activity against PAF (4e-10 M) induced aggregation of rabbit platelet at 1.5E-5 M concentration
Oryctolagus cuniculus [6] = species: Oryctolagus cuniculus; assay: Inhibitory activity against PAF (4e-10 M) induced aggregation of rabbit platelet at 1.5E-6 M concentration
Oryctolagus cuniculus [7] = species: Oryctolagus cuniculus; assay: Inhibitory activity against PAF (4e-10 M) induced aggregation of rabbit platelet at 7.5E-5 M concentration

CCCCC/C=C\C/C=C\C/C=C\C/C=C\CCCC(=O)O [ARACHIDONIC ACID]
IC50 (Oryctolagus cuniculus [1]): ~60 µM
Inhibition (Oryctolagus cuniculus [2]): 24%
Inhibition (Oryctolagus cuniculus [3]): 100%
Inhibition (Oryctolagus cuniculus [4]): 100%
Inhibition (Oryctolagus cuniculus [5]): 6%
Inhibition (Oryctolagus cuniculus [6]): 0%
Inhibition (Oryctolagus cuniculus [7]): 61%
